The text below walks through data of patent US20020150961A1, “Activity-dependent cysteine protease profiling reagent” (The Regents of the University of California Office of …, priority 2000, published 2002).

Experiment [1] deals with multiple proteases in DC2.4 lysates. Nature of the experiment: Competition labeling in DC2.4 lysates with 125I-DCG-04. To be noted: for potency and selectivity, competition of 125I-DCG-04 labeling of multiple polypeptides: 50 μM library member, DC2.4 lysates, pH 5.5. The format is biochemical. On the procedure: Lysates from the dendritic cell line DC2.4 were prepared at pH 5.5 as described above. Purified cathepsin H was purchased from Calbiochem (San Diego, Calif.). Samples of lysates (100 μg total protein in 100 μL buffer B; 50 mM Tris pH 5.5, 5 mM MgC12, 2 mM DTT) or purified cathepsin H (1 μg protein in 100 μL buffer A) were preincubated with 50 μM of each library member (diluted from 5 mM DMSO stocks) for 2 hrs at room temperature. […] Samples were quenched by the addition of 4×sample buffer to 1×followed by boiling for 5 minutes. Samples were analyzed by SDS-PAGE followed by autoradiography.

The next experiment has as its target T1, cathepsin B (Mus musculus, UniProt P10605).
T1 construct: This method allowed analysis of cathepsin B specificity in crude extracts; endogenous in cells; host or cells: DC2.4 dendritic cell line
Nature of the experiment: Competition labeling in DC2.4 lysates with cathepsin B-specific 125I-MB-074. The format is biochemical. The following applies: P2 library preincubation. On the procedure:
Lysates from the dendritic cell line DC2.4 were prepared at pH 5.5 as described above. Purified cathepsin H was purchased from Calbiochem (San Diego, Calif.). Samples of lysates (100 μg total protein in 100 μL buffer B; 50 mM Tris pH 5.5, 5 mM MgC12, 2 mM DTT) or purified cathepsin H (1 μg protein in 100 μL buffer A) were preincubated with 50 μM of each library member (diluted from 5 mM DMSO stocks) for 2 hrs at room temperature. Samples were then labeled by addition of either ^125I-DCG-04 or ^125I-MB-074 to each sample followed by further incubation at room temperature for 1 hour. Samples were quenched by the addition of 4×sample buffer to 1×followed by boiling for 5 minutes. Samples were analyzed by SDS-PAGE followed by autoradiography.

Experiment [2] relates to papaine family of cysteine proteases. To be noted: literature; cited from earlier work.
The subject of a further experiment is invasive cells. To be noted: treatment of invasive cells, literature; cited from earlier work.
In experiment [3] the test system is papain family cysteine proteases in DC2.4 cells. Nature of the experiment: In situ fluorescence labeling of DC2.4 cells. The experiment is classed as cell-based. The following applies: pre-treatment 10 mM for 1 hour. On the procedure: Dendritic cells (DC2.4) were plated on a 24-well dish (10^5 cells/well) embedded with sterile microscope cover slips, in RPMI medium containing 10% FBS. After 16 hours, cells were washed with 1 ml TC-199 medium and incubated with […] of Bodipy-DCG-04 in TC-199 for 12 hours at 37° C. Cells were washed 3 times with 1 ml TC-199 and incubated for 5 hr in probe-free medium. Subsequently, cells were either lysed in buffer A and analyzed on a 12.5% SDS-PAGE using a fluorescent scanner or viewed under a fluorescent microscope.

Experiment [4] relates to cysteine proteases in DC2.4 dendritic cell extracts. Nature of the experiment: Direct labeling of DC2.4 total cell extracts with probes (affinity blot / autoradiography). The experiment is classed as binding. On the procedure:
Tissues were dounce-homogenized in buffer A (50 mM Tris pH 5.5, 1 mM DTT, 5 mM MgCl2, 250 mM sucrose) and extracts centrifuged at 1,100×g for 10 min at 4° C. The resulting supernatant was centrifuged at 22,000×g for 30 min at 4° C. and final supernatants used for all labeling experiments. Cells were lysed using glass beads (<104 microns) in buffer A and supernatants centrifuged for 15,000×g for 15 min at 4° C. The total protein concentration of the final supernatants (soluble) was determined by BCA protein quantification (Pierce).
Equivalent amounts of radioactive inhibitor stock solutions (approx. 10^6 cpm per sample) were used for all labeling experiments. Samples of lysates (100 μg total protein in 100 μL buffer; 50 mM Tris pH 5.5, 5 mM MgC12, 2 mM DTT) were labeled for 1 hour at 25° C. unless noted otherwise. Samples were quenched by dilution of 4×SDS sample buffer to 1×(for 1D SDS-PAGE) or by dissolving urea to a final concentration of 9.5 M (for 2D SDS-PAGE).
Quenched DCG-04 labeled samples were separated by SDS/PAGE […] and transferred to nitrocellulose using semi-dry apparatus. Membranes were blocked using phosphate buffered saline (PBS) and 5% (w/v) dry milk for 30 min at 25° C. Blots were washed briefly with PBS/0.2% Tween (PBS-Tween) and treated with avidin-horseradish peroxidase conjugate (VectaStain) in PBS-Tween for 30 min. at 25° C. […]

Experiment [5] concerns papain family proteases in rat liver. In words: Affinity purification and identification of DCG-04 labeled proteases from rat liver. To be noted: single-step affinity purification, LC-MS-TOF CID. The experiment is classed as binding. On the procedure:
Protein lysates prepared in buffer A (50 mM Acetate buffer, 5 mM DTT, 0.1% Triton X-100) were incubated with […] for 1.5 hours at room temperature. After incubation the protein lysate was passed through a PD10 column pre-equilibrated with buffer B (50 mM Tris-Base 7.4, 150 mM NaCl) and proteins were eluted with the same buffer. SDS was added to eluted proteins to a final concentration of 0.5% and the solution boiled for 10 minutes, diluted 2.5 fold with buffer B (to reduce SDS concentration to 0.2%) and incubated with […] of pre-washed Streptavidin beads for 1 hour at room temperature. Beads were washed 5 times with buffer B, and bound proteins were eluted by boiling for 10 minutes in the presence of […]. For 2D analysis, samples in SDS sample buffer were diluted 1:1 with IEF sample buffer ([…], 5% BME, 2% NP-40, 1.6% pH 5-7 ampholines and 0.4% pH 3.5-10 ampholines) and pure NP-40 was added (25% of volume of sample). Samples were applied to IEF tube gels and electrophoresed at 1000V for 13 hours followed by separation in the second dimension on 15% SDS-PAGE gels. […] The mass range recorded in survey acquisitions was m/z 300-1400. […] All the data were measured using a two point external calibration. […]

Experiment [6] deals with cysteine proteases in rat kidney. Nature of the experiment: Affinity purification and identification of DCG-04 modified proteins from rat kidney. To be noted: monomeric-avidin purification, mass spectrometry. The format is binding. On the procedure: A soluble fraction of rat kidney lysate (80 mg total protein) was diluted into anion exchange starting buffer (50 mM Tris, 50 mM NaCl, pH 9.0). The lysate was applied to a […] anion exchange column (Amersham Pharmacia Biotech) and eluted using a linear gradient of 0.05-1M NaCl, pH 9. An aliquot from each fraction (50 μL) was incubated with 50 μM DCG-04 at 25° C. for 1hr and analyzed on a 12.5% SDS/PAGE gel followed by affinity blotting as described above. The fractions containing peak labeling of the 25 kD-30 kD bands were pooled and DCG-04 was added to a final concentration of 50 μM. Pools were incubated at 25° C. for 2 hours and then 12 hours at 4° C. Unbound inhibitor was removed and buffer was exchanged with PBS using a PD-10 column (Pharmacia). Samples were applied to a monomeric-avidin column (1 ml bed volume; Pierce) and the column was washed with 6×1 ml fractions of 1M NaCl. Bound proteins were eluted with 0.5 ml fractions of 2 mM Biotin/100 mM NH4HCO3 buffer. All wash and eluent fractions were analyzed by SDS/PAGE and silver staining. The fractions containing the labeled 25-30 kD bands were pooled, the volume reduced by lyophilization and solid urea added to 9.5 M along with BME to 5%, NP-40 to 2%, pH 5-7 ampholytes to 1.6% and pH 3.5-10 ampholytes to 0.4%. […]

T1 sequence (P10605 80-333 limits assumed): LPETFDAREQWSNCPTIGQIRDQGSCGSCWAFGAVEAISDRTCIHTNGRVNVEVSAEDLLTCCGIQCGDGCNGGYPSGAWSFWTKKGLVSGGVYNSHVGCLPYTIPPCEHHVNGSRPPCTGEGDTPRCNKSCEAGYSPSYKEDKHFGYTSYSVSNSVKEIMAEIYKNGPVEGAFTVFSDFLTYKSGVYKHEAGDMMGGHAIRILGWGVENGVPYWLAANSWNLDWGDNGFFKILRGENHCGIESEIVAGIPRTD

For the molecule `NCC(=O)O` [glycine], the “potency and selectivity, competition of 125I-DCG-04 labeling of multiple polypeptides” value (shortened to “potency and selectivity, competition”) in experiment [1] is reported as “relatively poor activity overall, they showed some degree of specificity against polypeptide 2”.

Regarding `CC(C)[C@H](N)C(=O)O` [valine containing compound], the “potency and selectivity, competition” value in experiment [1] is “competed for polypeptides 1, 2 and cathepsin B but had little effect on the remaining species”. The “activity, competition of 125I-MB-074 labeling of cathepsin B” value (from here on “activity, competition”) on cathepsin B is given as “highest activity”.

With `N[C@@H](CC(=O)O)C(=O)O` [aspartic acid], the “potency and selectivity, competition” value in experiment [1] is on record as “relatively poor activity overall, they showed some degree of specificity against polypeptide 2”.

Turning to `CC(C)C[C@H](NC(=O)[C@H]1O[C@@H]1C(=O)O)C(=O)NCCCCN=C(N)N` [E-64], the “reactivity toward cysteine proteases” value in experiment [2] was “broadly reactive”. The “effect on cellular invasion” value in the experiment with invasive cells is given as “block in cellular invasion into a synthetic matrix”. Moreover, in experiment [1] (increasing concentrations, preincubation, DC2.4 extracts), the “competition of 125I-DCG-04 labeling” value is given as “effectively competed”. In experiment [3], the “inhibition of in situ protease labeling by green-DCG-04” value was “completely inhibited”.

As for `N[C@@H](Cc1ccccc1)C(=O)O` [phenylalanine], the “potency and selectivity, competition” value in experiment [1] was “specificity for polypeptides 2, 3, 4, and 5”. Also, the “activity, competition” value on cathepsin B is “highest activity followed by the aromatic amino acids”.

`CC(C)CC(NC(=O)C1OC1C(=O)O)C(=O)NCCc1ccc(O)cc1` (stereo not shown) [JPM-565, reference compound]: the “labeling as detected by affinity blotting” value in experiment [4] (non-radiolabeled compound, DC2.4 extracts) is “no labeling”.

In the case of `N[C@@H](Cc1ccc(O)cc1)C(=O)O` [tyrosine], the “potency and selectivity, competition” value in experiment [1] was “specificity for polypeptides 2, 3, 4, and 5”. Besides, the “activity, competition” value on cathepsin B is “highest activity followed by the aromatic amino acids”.

For the molecule DCG-04, in experiment [4] (preheated to 100° C. for 1 min before adding compound), the “labeling of major 20-40 kDa species after preheating of samples” value is “lost upon heat denaturation”. Besides, the “potency and selectivity, competition” value in experiment [1] is “highest activity and the lowest amount of specificity”. Besides, the “proteases identified via probe” value in experiment [5] was “cathepsins Z, H, C and J”. Moreover, the “activity, competition” value on cathepsin B is “highest activity”. Moreover, in experiment [6], the “active cysteine proteases identified via probe” value is “cathepsin B, H, and L”.

As to `CC[C@H](C)[C@H](N)C(=O)O` [isoleucine], the “potency and selectivity, competition” value in experiment [1] was “highest activity and the lowest amount of specificity”. Besides, the “activity, competition” value on cathepsin B was “highest activity”.

With `CCCC[C@H](N)C(=O)O` [norleucine], in experiment [1], the “potency and selectivity, competition” value was “highest activity and the lowest amount of specificity”. Besides, at cathepsin B, the “activity, competition” value was “highest activity”.
